Laboratory results taken from patent US20170334899A1, “AMINO-SUBSTITUTED ISOTHIAZOLES” (Bayer Pharma Aktiengesellschaft, priority 2014, published 2017).

Experiments:
HeLa = assay: Proliferation assay (crystal violet), HeLa; type: cell-based; conditions: Homo sapiens, HeLa, 96 h, HeLa cells; 4 days incubation; crystal violet staining; read-out: IC50 inhibition of proliferation, HeLa
How it was run: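 Four-day compound exposure (0.001-10 μM, 0.5% DMSO final) began 24 h after seeding 1000-5000 cells/well in medium with 10% fetal calf serum. Cell number read by crystal violet absorbance at 595 nm, scaled between day-zero plate and untreated control; 4-parameter fit gave IC50.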

[1] = tested on: human cervical tumor cell line HeLa (ATCC CCL-2); assay: SAC-Formation - Paclitaxel-Induced Assay; type: cell-based; conditions: Homo sapiens, HeLa, 24 h, HeLa cells, paclitaxel 0.05 μM, test range 0.005 μM-20 μM, read-out: IC50 [mol/l] SAC-Formation - Paclitaxel-Induced Assay
How it was run: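 Read-out is high-content imaging of anti-phospho-H3 Ser10 (mitosis) and Hoechst 33342 (DNA, cell number), with decreased mitotic fraction marking checkpoint breakthrough. Compounds (0.005–20 μM) and 0.05 μM paclitaxel co-added to overnight-plated HeLa for 24 h at 37° C; four-parameter Hill fit.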

IC50 (HeLa) [µM] | IC50 [1] [µM] | SMILES
0.42 |  | Cc1nsc(Nc2cnc(C(F)(F)F)cn2)c1C(=O)Nc1ccc(F)c(OCC2CCN(C(CF)CF)CC2)c1 [Example 312, N-(3-{[1-(1,3-difluoropropan-2-yl)piperidin-4-yl]methoxy}-4-fluorophenyl)-3-methyl-5-{[5-(trifluoromethyl)pyrazin-2-yl]amino}-1,2-thiazole-4-carboxamide]
7.6 | 2.1 | CC(=O)N1CCC(Oc2ccc(NC(=O)c3c(C)nsc3Nc3cnc4ccccc4n3)cn2)CC1 [Example 22, N-{6-[(1-acetylpiperidin-4-yl)oxy]pyridin-3-yl}-3-methyl-5-(quinoxalin-2-ylamino)-1,2-thiazole-4-carboxamide]
0.4 | 0.032 | Cc1nsc(Nc2cnc(C(F)(F)F)cn2)c1C(=O)Nc1ccc(F)c(OCCCN(C)CCC(F)(F)F)c1 [Example 303, N-(4-fluoro-3-{3-[methyl(3,3,3-trifluoropropyl)amino]propoxy}phenyl)-3-methyl-5-{[5-(trifluoromethyl)pyrazin-2-yl]amino}-1,2-thiazole-4-carboxamide]
0.31 | 0.16 | Cc1nsc(Nc2cnc(C(F)(F)F)cn2)c1C(=O)Nc1ccc(F)c(OC2CCN(CCF)CC2)c1 [Example 266, N-(4-fluoro-3-{[1-(2-fluoroethyl)piperidin-4-yl]oxy}phenyl)-3-methyl-5-{[5-(trifluoromethyl)pyrazin-2-yl]amino}-1,2-thiazole-4-carboxamide]
0.36 | 0.81 | Cc1nsc(Nc2cnc(C(F)(F)F)cn2)c1C(=O)Nc1ccc(F)c(OCCCN(C)CC(F)F)c1 [Example 301, N-(3-{3-[(2,2-difluoroethyl)(methyl)amino]propoxy}-4-fluorophenyl)-3-methyl-5-{[5-(trifluoromethyl)pyrazin-2-yl]amino}-1,2-thiazole-4-carboxamide]
0.57 | 0.095 | Cc1nsc(Nc2cnc(C(F)(F)F)cn2)c1C(=O)Nc1ccc(F)c(OCCCNCC(F)(F)F)c1 [Example 306, N-(4-fluoro-3-{3-[(2,2,2-trifluoroethyl)amino]propoxy}phenyl)-3-methyl-5-{[5-(trifluoromethyl)pyrazin-2-yl]amino}-1,2-thiazole-4-carboxamide]
10 | 6.5 | Cc1nsc(Nc2cnc3ccccc3n2)c1C(=O)Nc1cccc(NS(=O)(=O)C2CN(CC(F)F)C2)c1 [Example 286, N-[3-({[1-(2,2-difluoroethyl)azetidin-3-yl]sulfonyl}amino)phenyl]-3-methyl-5-(quinoxalin-2-ylamino)-1,2-thiazole-4-carboxamide]
1.3 | 0.56 | Cc1nsc(Nc2cnc(C(F)(F)F)cn2)c1C(=O)Nc1ccc(OCCCNCCC(F)(F)F)nc1 [Example 294, 3-methyl-5-{[5-(trifluoromethyl)pyrazin-2-yl]amino}-N-(6-{3-[(3,3,3-trifluoropropyl)amino]propoxy}pyridin-3-yl)-1,2-thiazole-4-carboxamide]
0.68 | 0.29 | Cc1nsc(Nc2cnc(C(F)(F)F)cn2)c1C(=O)Nc1ccc(F)c(OCC2CCN(C(CF)CF)C2)c1 (stereo not drawn) [Example 320, N-(3-{[1-(1,3-difluoropropan-2-yl)pyrrolidin-3-yl]methoxy}-4-fluorophenyl)-3-methyl-5-{[5-(trifluoromethyl)pyrazin-2-yl]amino}-1,2-thiazole-4-carboxamide]
> 10 | 10 | Cc1nsc(Nc2cnc(C(F)(F)F)cn2)c1C(=O)Nc1ccc(C(=O)NC2CN(CC(F)(F)F)C2)cc1 [Example 270, 3-methyl-N-(4-{[1-(2,2,2-trifluoroethyl)azetidin-3-yl]carbamoyl}phenyl)-5-{[5-(trifluoromethyl)pyrazin-2-yl]amino}-1,2-thiazole-4-carboxamide]
1.8 | 0.42 | Cc1nsc(Nc2cnc(C(F)(F)F)cn2)c1C(=O)Nc1ccc(OCCCNCC(F)(F)F)nc1 [Example 292, 3-methyl-N-(6-{3-[(2,2,2-trifluoroethyl)amino]propoxy}pyridin-3-yl)-5-{[5-(trifluoromethyl)pyrazin-2-yl]amino}-1,2-thiazole-4-carboxamide]
> 10 | 6.1 | Cc1nsc(Nc2cnc3ccccc3n2)c1C(=O)Nc1cccc(NS(=O)(=O)C2CN(CC(F)(F)F)C2)c1 [Example 285, 3-methyl-5-(quinoxalin-2-ylamino)-N-[3-({[1-(2,2,2-trifluoroethyl)azetidin-3-yl]sulfonyl}amino)phenyl]-1,2-thiazole-4-carboxamide]
2.2 | 0.72 | Cc1nsc(Nc2cnc(C(F)(F)F)cn2)c1C(=O)Nc1ccc(OCCCO)nc1 [Example 279, N-[6-(3-hydroxypropoxy)pyridin-3-yl]-3-methyl-5-{[5-(trifluoromethyl)pyrazin-2-yl]amino}-1,2-thiazole-4-carboxamide]
0.41 | 0.078 | Cc1nsc(Nc2cnc(C(F)(F)F)cn2)c1C(=O)Nc1ccc(F)c(OC2CCN(CC(F)F)C2)c1 (stereo not drawn) [Example 314, N-(3-{[1-(2,2-difluoroethyl)pyrrolidin-3-yl]oxy}-4-fluorophenyl)-3-methyl-5-{[5-(trifluoromethyl)pyrazin-2-yl]amino}-1,2-thiazole-4-carboxamide]
3.1 | 2.2 | Cc1nsc(Nc2cnc3ccccc3n2)c1C(=O)Nc1cccc(C(=O)NC(C)C)c1 [Example 253, N-[3-(isopropylcarbamoyl)phenyl]-3-methyl-5-(quinoxalin-2-ylamino)-1,2-thiazole-4-carboxamide]
6.1 | 10 | Cc1nsc(Nc2ccc(C#N)cn2)c1C(=O)Nc1cccc(C(=O)NC(C)C)c1 [Example 255, 5-[(5-cyanopyridin-2-yl)amino]-N-[3-(isopropylcarbamoyl)phenyl]-3-methyl-1,2-thiazole-4-carboxamide]
0.87 | 0.15 | Cc1nsc(Nc2cnc3ccccc3n2)c1C(=O)Nc1ccc(OC2CCN(CC(F)(F)F)CC2)nc1 [Example 21, 3-Methyl-5-(quinoxalin-2-ylamino)-N-(6-{[1-(2,2,2-trifluoroethyl)piperidin-4-yl]oxy}-pyridin-3-yl)-1,2-thiazole-4-carboxamide]
8.8 | 3.6 | Cc1nsc(Nc2cnc3ccccc3n2)c1C(=O)Nc1cccc(NS(=O)(=O)C2CCN(C(=O)OC(C)(C)C)C2)c1 (stereo not drawn) [Example 290, tert-butyl 3-{[3-({[3-methyl-5-(quinoxalin-2-ylamino)-1,2-thiazol-4-yl]carbonyl}amino)phenyl]sulfamoyl} pyrrolidine-1-carboxylate]
4.8 | 2.9 | CCN1CCN(C(=O)c2ccc(NC(=O)c3c(C)nsc3Nc3cnc(C(F)(F)F)cn3)cc2)CC1 [Example 261, N-{4-[(4-ethylpiperazin-1-yl)carbonyl]phenyl}-3-methyl-5-{[5-(trifluoromethyl)pyrazin-2-yl]amino}-1,2-thiazole-4-carboxamide]
0.34 | 0.43 | Cc1nsc(Nc2cnc(C(F)(F)F)cn2)c1C(=O)Nc1ccc(F)c(OCCCN(C)CC(F)(F)F)c1 [Example 302, N-(4-fluoro-3-{3-[methyl(2,2,2-trifluoroethyl)amino]propoxy}phenyl)-3-methyl-5-{[5-(trifluoromethyl)pyrazin-2-yl]amino}-1,2-thiazole-4-carboxamide]
